In data set [1] the target is T1, mitoNEET (Homo sapiens, UniProt Q9NZ45).
T1 sequence (Q9NZ45 32-108 limits assumed): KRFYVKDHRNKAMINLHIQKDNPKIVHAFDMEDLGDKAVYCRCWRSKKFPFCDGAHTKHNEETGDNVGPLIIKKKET
The experiment in a line: [3H]rosiglitazone displacement binding assay (SPA). The conditions noted are these: 20 nM [3H]rosiglitazone, 60 min, room temperature, 50 mM Tris pH 8; ± std error. The procedure: Recombinant mitoNEET was attached to nickel scintillation proximity assay (SPA) beads, and incubated with 20 nM [^3H] rosiglitazone (PerkinElmer) for 60 min at room temperature. The binding buffer was 50 mM Tris pH 8. White clear bottom 96-well plates were used for the assay, and the counts per minute analyzed in a MicroBeta Counter (Perkin Elmer). Data were analyzed as fraction of the total binding using a one-site model with GrapPad Prism 6 statistical software.

The test system of data set [2] is N2A mouse neuronal cells. The experiment in a line: Seahorse bioenergetics mitochondrial stress test. It is filed as cell-based. Particulars: 20 μM, three hours, vs DMSO vehicle. The procedure:
Mitochondrial bioenergetics were evaluated by the use of the Seahorse 96-well plate reader. Cells were grown in specialty plates from the company, at 20,000 cells per well of N2A mouse neuronal cells. The cells were treated with compounds at 20 μM for three hours, and then a mitochondrial stress test (Seahorse Biosciences) done using compounds which affect mitochondrial function, including oligomycin, FCCP, rotenone, and antimycin A.

Data set [3] deals with T1, mitoNEET. The experiment in a line: Pull-down capture assay with furosemide probe on streptavidin beads. It is filed as binding. The conditions noted are these: 0–100 μM furosemide, N2A cell lysate with recombinant mitoNEET, 100 μM probe, Western blot. The procedure: For the ELISA assay, streptavidin plates (Pierce) were incubated for 30 min with a dose-dilution of the probe, after which an equal amount of recombinant mitoNEET protein was placed into the wells. After 2 h incubation at 4 °C, the plate was washed with a wash buffer with PBS pH 7.4 containing 0.05% Tween-20. The amount of mitoNEET was determine using a mitoNEET primary antibody (ProteinTech) 1:1000, followed by secondary anti-rabbit horseradish peroxidase antibody 1:2000 for 1 h. Detection of the color was done at 450 nm after addition of 3,3′,5,5′-tetramethylbenzidine solution and stopping solutions (Pierce). For the capture assay, N2A cells were lysed and collected with radio-immunoprecipitation assay buffer. […] At the end of the experiment, a magnetic tube rack was used to attract the magnetic beads. The solutions were washed with PBST (pH 7.4, 0.05% Tween-20), boiled for 5 min, and run on a BioRad 4–20% gel for Western Blot analysis (mitoNEET primary antibody 1:1000 and secondary HPR 1:2000).

Data set [4] relates to recombinant mitoNEET (mitoNEET-His protein). Set-up: method as in PMID 27687671. Particulars: read-out: IC50, binding to mitoNEET; cited from earlier work.
In data set [5] the target is T1, mitoNEET. The experiment in a line: Surface plasmon resonance. The conditions noted are these: SPR, PBST pH 7.4, 1% DMSO, 25 °C, one-to-one binding model; read-out: equilibrium dissociation constant Kd.
Procedure: Experiments were performed using Reichert4SPR refractometer system (Reichert Technologies, Depew, NY, USA) equipped with a dextran SPR sensor chip (Reichert carboxymethyl dextran P/N 13206066). Acetate buffer was used for immobilization of the protein MN (ligand). […] Data analysis were performed with TraceDrawer software. Final Kd values were determined by fitting to a one-to-one binding model.
Data set [6] is described as follows: Dynamic light scattering aggregate formation. It is filed as physicochemical. Particulars: 20 μM in PBS pH 7.4. The procedure:
This stock solution was diluted into PBS pH 7.4 to a final concentration of 20 μM, and the evaluated using a Malvern DLS Nano-ZS-90 system (Malvern Instruments).

For data set [7], the target named is T2, mitoNEET [2Fe-2S] cluster (Homo sapiens, UniProt Q9NZ45).
T2 sequence (Q9NZ45 with tags, fused parts or gaps): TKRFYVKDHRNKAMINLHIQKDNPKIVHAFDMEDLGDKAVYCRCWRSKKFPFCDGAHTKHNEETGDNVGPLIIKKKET
The experiment in a line: Iron-sulfur cluster release assay. It is filed as biochemical. The conditions noted are these: 20 μM, pH 6.5, absorbance at 458 nm, room temperature. As to the method: This method was adapted as previously described. MitoNEET was prepared as described earlier and a stock of 4 mg/mL was used in the assay, in a 50 mM Tris buffer pH 8. […] In each well 80 μL of the appropriate buffer, with either vehicle or compound, and then mitoNEET protein was added at 20 μL. The 96-well plate was analyzed in a BioTek Synergy 4 plate reader, reading at 458 nm for a period of time, at room temperature. For the pH 8, we used 50 mM Tris pH 8, with 100 mM NaCl, and for the pH 6.5, we used the 50 mM Bis–Tris pH 6.5 with 100 mM NaCl buffer solution.

Data set [8] concerns the molecule itself. The experiment in a line: crystal structure; mitoNEET (20 mg/ml) with equimolar furosemide, sitting drop vapor diffusion, 60% v/v Tacsimate pH 7.0; 1.95 Å; MR-SAD with PDB 3REE as search model.

Values joined by “and” are separate entries in the source; they are usually repeats but may differ in a detail not shown here. Equal values may be shown once. “Also recorded” adds a separate entry of the source.

Regarding `CCCNc1cc(Cl)c(S(N)(=O)=O)cc1C(=O)O` [2a], in data set [1], the 50% inhibitory concentration (IC50) (in general, the concentration that inhibits the measured activity by half) is 81 µM and 81.4 µM.
Turning to `CCCCNc1cc(Cl)c(S(N)(=O)=O)cc1C(=O)O` [2b], the IC50 in [1] is 42.6 ± 1.03 µM.
In data set [1], `CCCCCNc1cc(Cl)c(S(N)(=O)=O)cc1C(=O)O` [2c] yielded an IC50 of 54.3 ± 0.92 µM.
In [1], `CCCCCCNc1cc(Cl)c(S(N)(=O)=O)cc1C(=O)O` [2d] registered a concentration for half-maximal inhibition (IC50) of 9.12 ± 1.04 µM.
Consider `CCCCCCCNc1cc(Cl)c(S(N)(=O)=O)cc1C(=O)O` [2e], for which the concentration for half-maximal inhibition (IC50) in data set [1] worked out at 19.8 ± 0.9 µM.
Regarding `CCCCCCCCNc1cc(Cl)c(S(N)(=O)=O)cc1C(=O)O` [2f], the melting point (as a rule, the temperature of the solid-liquid transition) lay within 184 to 185 °C. In addition, in data set [2], the ATP-linked oxygen consumption result is on record as “increase”, the “basal respiration (oxygen consumption rate)” value (“basal respiration” for short) is listed as “increase” and the maximal respiration entry was “increase”. Besides, the IC50 in [1] is 6.2 µM and 6.24 µM.
In the case of `NS(=O)(=O)c1cc(C(=O)O)c(NCc2ccccc2)cc1Cl` [2l], in data set [2], the ATP-linked oxygen consumption result is “increase”, the “basal respiration” value is reported as “increase” and the maximal respiration entry is listed as “increase”. The concentration for half-maximal inhibition (IC50) in [1] was 20.7 µM and 20.8 µM.
In turn, `NS(=O)(=O)c1cc(C(=O)O)c(NCc2ccc(F)cc2)cc1Cl` [2n] showed an IC50 in data set [1] of 8.82 ± 1 µM.
Same read-out and setting: the result for `NS(=O)(=O)c1cc(C(=O)O)c(NCc2cccs2)cc1Cl` [2p] reads 12.4 ± 1.23 µM; that for `CCCCC/C=C\C/C=C\C/C=C\C/C=C\CCCC(=O)O` [Arachidonic acid, reference compound], 2.93 ± 1.06 µM.
Take `NS(=O)(=O)c1cc(C(=O)O)c(NCc2ccco2)cc1Cl` [Furosemide, furosemide]: the “mitoNEET captured by furosemide probe in presence of competitor” value in [3] is on record as “dose-dependently the reduction of mitoNEET captured; also recorded: able to reduce the amount of mitoNEET captured”. In addition, in data set [2], the “basal respiration” value is “increase”, the maximal respiration result is on record as “increase” and the proton leak entry is recorded as “trended to increase”. Besides, the IC50 in data set [4] was about 40 µM. In addition, the Kd (as a rule, the constant that tells how readily two partners part at equilibrium) in data set [5] came out at 53.5 µM. The “aggregate formation in solution (DLS)” value in data set [6] is given as “did not observe any aggregate formation”. In [1], this molecule displayed a 50% inhibitory concentration (IC50) of 29.3 ± 0.97 µM. Further, in data set [7], the “iron-sulfur cluster release from mitoNEET” value was “able to slow down cluster release”. Moreover, in [7] (listed as furosemide), the “iron-sulfur cluster release from mitoNEET” value was “able to reduce cluster loss”.
`NS(=O)(=O)c1cc(C(=O)O)c(Cl)cc1Cl` [compound 1, 2,4-dichloro-5-sulfamoylbenzoic acid, reference compound]: the IC50 in [1] came out at 1021 ± 0.96 µM.

B1: soluble domain of human mitoNEET (domain or fragment)
chain: T2 sequence (Q9NZ45 with tags, fused parts or gaps)
notes: mitoNEET (gene cisd1), human, soluble domain; Each subunit holds a [2Fe-2S] cluster (His87 and three cysteines); also called mN; MN; source: E. coli Rosetta 2 (DE3), purified (Ni-NTA, SUMO protease digestion, second Ni-NTA, size exclusion chromatography); not shown: His-SUMO, N-terminal, cleaved
With B1, the binding result in data set [8] is recorded as “binds”.

(Values after PMC7205193, “Crystal structure of the mitochondrial protein mitoNEET bound to a benze-sulfonide ligand” (Communications chemistry, 2019).)
